# Data taken from patent publication US4921873A, “Antiviral and antitumor cyclohexadienone compositions” (Harbor Branch Oceanographic Institution, Inc., priority 1985, dated 1990).
# How the values were obtained:
# cells = assay: Zone of cytotoxicity in antiviral disk assay; type: cell-based; conditions: read at Day 5
# Description: The following assay method was utilized to illustrate the antiviral effectiveness of the compound of Formula II.
# (11) For assay, add 1×10^6 cells to each well (6 wells per culture dish). Bring each well to 2 ml with fresh medium.
# (4) Add 2 ml MC-4000 to each well.
# (5) Place disks on surface and push through (1 mg/disc, 0.5 mg/disc, 0.25 mg/disc, etc. for crude extracts).
# (1) Add 2 ml neutral red medium.
# [1] = test system: L-1210 murine leukemia cells; assay: L-1210 mouse leukemia cell cytotoxicity assay; type: cell-based; conditions: L-1210, at 200 μg/ml, in vitro
# Description: The following assay method was utilized to illustrate the antitumor effectiveness of the compounds of formulas II, IV, V, VI and VII.
# L1210 And P388 MOUSE LEUKEMIA CELL CYTOXICITY ASSAY 24-WELL PLATE SCREENING ASSAY AND TUBE ASSAY PROTOCOL
# Media--Dulbeccos with glucose and pyruvate (Biologos, Inc) with 10% horse serum, (Biologos, Inc) and 1.0 μg/ml gentamicin (Gibco). Cells--L1210 and P-388 mouse leukemia cells (American Type Culture Collection) in media at a concentration of 5×10^4 cells/ml. Sterile 24-well culture plates (Nunc) for screening or 12×75 mm glass culture tubes (Becton-Dickinson) for tube assay. Microdispenser with 1 to 5 μl increments (Drummond Scientific Co. Broomall Pa). Finnpipette with […] and Finnpipette with 50 to 200 μl increments.
# 1. A sample of the composition to be assayed is added to each well or tube in an amount of from 200 μg/ml and 100 μg/ml for screening. For DDC of known active compounds use log concentrations from 100 μg/ml to 0.01 μg/ml for range-finding assay; when range has been determined, use five concentrations between highest and lowest active concentrations.
# 2. Add 2.0 ml of 5×10^4 cell suspension in media to each well or tube. Tubes are loosely covered with parafilm.
# 3. Incubate in 5% CO2 incubator 48 hours.
# 4. Visually read plates with inverted microscope, comparing with solvent control. Assign activity as follows: […]
# HSV-I = HSV-I plaque inhibition disk assay (antiviral effectiveness); type: cell-based, herpes simplex-I; parameters: key to inhibition of plaque formation: +++: complete inhibition; ++: a few plaques around the outside of well; +: definite inhibition; +/-: questionable inhibition; -: no inhibition
# Description: The following assay method was utilized to illustrate the antiviral effectiveness of the compound of Formula II. (1) Remove 75 cm^2 culture flasks from incubator (these were plated the previous week). (11) For assay, add 1×10^6 cells to each well (6 wells per culture dish). Bring each well to 2 ml with fresh medium. (1) Aspirate medium. (2) Add 0.5 of medium containing 200 pfu HSV-I. (3) Incubate […] with a small amount of shaking. (4) Add 2 ml MC-4000 to each well. (5) Place disks on surface and push through (1 mg/disc, 0.5 mg/disc, 0.25 mg/disc, etc. for crude extracts). (6) Incubate 48 hr. (making sure dishes remain level). Day 4: (1) Add 2 ml neutral red medium. (2) Incubate overnight.
# [2] = Stability of isolated alcohol derivative at room temperature; type: physicochemical
smiles,measurement,setting,value
CC(=O)OCC(Cl)C1=CC(C)(C)C=CC1=O (stereo not drawn) [Formula II],zone of cytotoxicity (diameter),cells,16 mm
same,viability at 200 µg/mL,"[1]; Mus musculus, L1210, 48 h, read-out: survival",100%
same,inhibition of plaque formation,"HSV-I; 200 pfu, read at Day 5",++
same,antiviral activity,"HSV-I; results at Day 5, in words",definite antiviral activity
CC1(C)C=CC(=O)C(C(Cl)CO)=C1 (stereo not drawn) [Formula VIII],decomposition time,[2],two
CC1(C)C=CC(=O)C(C2CO2)=C1 (stereo not drawn) [Formula VII],survival,"[1]; 48 hours, 2880 min",28%
